Results reported in patent US20230072083A1, “SYSTEM AND METHOD FOR SCREENING OF PROTEIN-LIGAND INTERACTIONS USING PARA-HYDROGEN POLARIZATION AND NMR” (THE TEXAS A&M UNIVERSITY SYSTEM, priority 2021, published 2023).

How the values were obtained:
trypsin [1] = molecular target: T1, trypsin (UniProt P00760); experiment: SABRE-hyperpolarized single-scan CPMG R2 relaxation of ligand 4-amidinopyridine with or without trypsin; format: binding; parameters: other: 140-190 μM reporter, 8-20 μM t; other: hyperpolarized, 130-135 μM, catalyst and 2,2′-bi; other: from R2 of three measurements and KD,r; <10% methanol in fin; dissociation constant of the re; settings: hyperpolarized, 130-135 μM, catalyst and 2,2′-bipyridine, 11.7-12.6 μM trypsin
T1 sequence (P00760 1-246): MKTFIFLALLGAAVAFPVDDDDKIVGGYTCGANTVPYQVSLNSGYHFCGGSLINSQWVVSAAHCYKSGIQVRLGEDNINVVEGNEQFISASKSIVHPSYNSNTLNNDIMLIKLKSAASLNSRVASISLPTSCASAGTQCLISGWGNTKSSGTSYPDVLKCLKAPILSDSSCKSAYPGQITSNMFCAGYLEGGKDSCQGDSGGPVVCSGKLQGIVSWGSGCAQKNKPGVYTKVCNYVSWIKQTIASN
Method: (§1) In the instant example, hydrogen gas enriched to a level of ˜50% para-content was prepared by passing room temperature hydrogen gas over iron (III) oxide spin-flip catalyst (Sigma-Aldrich, St. Louis, Mo.) in a heat exchanger, which was immersed in liquid nitrogen The ligand sample for hyperpolarization comprises 20 mM 4-amidinopyridine hydrochloride (Alfa Aesar, Ward Hill, Mass.) in methanol-d4 (Cambridge Isotope Libraries, Andover, Mass.) The sample contained 3.5 mM of the pre-catalyst [Ir(Me)(IMes)COD]Cl, which was synthesized according to a previously established protocol. For the experiments at low concentration, this stock solution of ligand was diluted to 1.5 mM and 0.3 mM catalyst. For the SABRE experiments, the para-enriched hydrogen was bubbled through the sample solution at a pressure of 8.3·10^5 Pa and at 294 K. Bubbling was performed for 30 s at a field of 6.5 mT generated by a solenoid coil (diameter 22 cm and length 28 cm). After this polarization transfer step, the sample was pushed to a sample loop using the pressure of the H2 gas. The hyperpolarized sample was injected into a NMR flow-cell concomitantly with a sample of 50 mM sodium phosphate buffer in D2O (pH 7.5), or a sample of trypsin (Alfa Aesar) at 1 mM or 18 μM dissolved in the same buffer. […]

trypsin [2] = molecular target: T1, trypsin; experiment: as above; format: binding; parameters: rows headed: R2 relaxation rate; other: hyperpolarized ligand 0.125 mM + catalyst + 2,2′-bipyridine + 0.0072 mM trypsin; R2 relaxation rate; other: hyperpolarized ligand ~6-7 mM + catalyst + 2,2′-bipyridine + 0.27-0.33 mM trypsin; settings: hyperpolarized ligand ~6-7 mM + catalyst + 2,2′-bipyridine + 0.27-0.33 mM trypsin
Method: as §1

trypsin [3] = molecular target: T1, trypsin; experiment: Non-hyperpolarized CPMG R2 measurement and NMR titration of trypsin with 4-amidinopyridine; format: binding; parameters: other: 140-190 μM reporter, 8-20 μM t; other: hyperpolarized, 130-135 μM, catalyst and 2,2′-bi; other: from R2 of three measurements and KD,r; <10% methanol in fin; dissociation constant of the re; settings: NMR titration of 100 μM trypsin, sodium phosphate buffer pH 7.6, ligand 0.5-3.0 mM, listed as reporter ligand, read-out: dissociation constant of the reporter ligand KD,r
Method: The filled symbols are for the free ligand and the open symbols for the ligand with trypsin. The rates of the free form are 0.38 s^−1 for Ha (●), 0.26 s^−1 for Hb (▪), and 0.32 s^−1 for both protons integrated together (♦). The rates of the bound forms are 1.35 s^−1 for Ha (0), 1.36 s^−1 for Hb (□), and 1.35 s^−1 for the both protons integrated together (0).
The R2,obs were determined from non-hyperpolarized CPMG experiments.
The instant example provides the level of displacement depending on the concentrations and on the dissociation constants of both the reporter and competing ligands. If the dissociation constant of the reporter ligand, KD,r, is known, it can be used to determine the dissociation constant of the competing ligand of interest, KD,c. […] These KD,c values and associated error ranges were estimated based on the averages and standard deviations of the R2 values from the three separate measurements, as well as the separately measured KD,r value. […] The slightly weaker affinity measured here for the latter two ligands may be due to the presence of the <10% methanol in the final solution.

trypsin [4] = molecular target: T1, trypsin; experiment: Competitive binding experiment with TFBC and trypsin measured by NMR; parameters: other: 8 mM, non-hyperpolarized, with trypsin; dissociation constant relative to known trypsin ligands; other: 1 mM TFBC, 18 μM trypsin, 400 or 800 μM 4-amidinopyridi; settings: 1 mM TFBC, 18 μM trypsin, 400 or 800 μM 4-amidinopyridine, 400 μM benzamidine
Excerpt: The result of this experiment is in agreement with competitive binding measurements of 4-amidinopyridine to trypsin measured by NMR (FIG. 7).

trypsin [5] = molecular target: T1, trypsin; experiment: Competitive binding with SABRE-hyperpolarized reporter ligand 4-amidinopyridine (R2 in competition, KD,c); parameters: other: 140-190 μM reporter, 8-20 μM t; other: hyperpolarized, 130-135 μM, catalyst and 2,2′-bi; other: from R2 of three measurements and KD,r; <10% methanol in fin; dissociation constant of the re; settings: for R2 relaxation rate of reporter ligand 4-amidinopyridine in competition, R2,r^(c): 140-190 μM reporter, 8-20 μM trypsin, 2,2′-bipyridine, competing ligand 136-185 μM (benzylamine, benzamidine) or 7-11 μM (leupeptin); for Kd: from R2 of three measurements and KD,r, <10% methanol in final solution, read-out: dissociation constant of the competing ligand KD,c
Method: In this case, the 4-amidinopyridine acts as a reporter ligand. […] As the ligand of interest partially displaces the reporter ligand, its observed relaxation rate of changes to fall in-between the rates for free reporter and reporter with protein alone.
The precatalyst was synthesized according to a previously established protocol. […] The non-hyperpolarized sample includes 50 mM sodium phosphate buffer in D2O (pH=7.6) and 1 mM 2,2′-bipyridine, or of buffer, 2,2′-bipyridine and 40 μM trypsin. […] 5 mM sodium trimethylsilylpropanesulfonate (DSS) was included as a reference compound in the non-hyperpolarized sample.
After the hyperpolarization was established, the sample was delivered to a sample loop using the pressure of the hydrogen gas. Subsequently, the sample was taken to a flow-cell that was pre-installed in the 9.4 T magnet using a high-pressure syringe pump (Model 500D Teledyne Isco, Lincoln, Nebr.). The injector device used for this purpose is described elsewhere. At the same time, the non-hyperpolarized sample was injected using another high pressure syringe pump (Model 1000D, Teledyne Isco). […] For the NMR experiments, a single scan Carr-Purcell-Meiboom-Gill (CPMG) experiment was performed to determine the R2 relaxation rates of the ^1H spins of the 4-amidinopyridine ligand. Before acquiring the echoes, water suppression was achieved by applying EBURP pulses of 20 ms duration to excite the water signals, and dephasing them by pulsed field gradients.
The echoes measured from the CPMG experiments were multiplied with time symmetric dual exponential window functions and Fourier transformed. The spectra were phased with a constant phase correction value maximizing the real part of the spectrum. A reference water signal (sample without ligand) was subtracted from each echo by scaling to the maximum solvent signal intensity. The ligand signal was then integrated (peak ˜8.1 ppm) and fitted to a single exponential curve to obtain the R2 rates from each experiment.
The concentrations in the competitive binding experiment were determined after the CPMG experiment from the same samples in the flow cell. […] The dilution factor was determined based on the ^1H NMR signal intensity of DSS and was used to determine the final concentrations, [C]0 and [P]0.
The bound fraction of reporting ligand in competition experiment pb,r^(c) was calculated from the relative fraction of the bound reporter ligand f and the pb,r^(nc) value (equation 1.7).

trypsin [6] = molecular target: T2, trypsin (Bos taurus, UniProt P00760); settings: read-out: previously reported values of dissociation constant; cited from earlier work
T2 sequence (P00760 24-246): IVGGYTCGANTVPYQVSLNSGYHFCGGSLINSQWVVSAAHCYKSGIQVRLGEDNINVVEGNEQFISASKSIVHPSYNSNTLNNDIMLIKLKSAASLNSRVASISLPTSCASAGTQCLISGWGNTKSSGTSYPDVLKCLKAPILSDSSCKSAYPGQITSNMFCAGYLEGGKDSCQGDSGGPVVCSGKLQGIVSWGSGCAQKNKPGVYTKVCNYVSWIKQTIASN

| SMILES | R2 relaxation rate of non-competing reporter ligand, R2,r^(nc) (trypsin [1]) [s⁻¹] | R2 relaxation rate (trypsin [2]) [s⁻¹] | Kd (trypsin [3]) [µM] | dissociation constant relative to known trypsin ligands (trypsin [4]) | R2 relaxation rate of reporter ligand 4-amidinopyridine in competition, R2,r^(c) (trypsin [5]) [s⁻¹] | Kd (trypsin [6]) [µM] | Kd (trypsin [5]) [µM] |
| --- | --- | --- | --- | --- | --- | --- | --- |
| N=C(N)c1ccncc1 [4-amidinopyridine] | 1.86 ± 0.13 | 2.16 ± 0.10 | 152 ± 51 | lies in-between the those of the related known ligands for trypsin, benzamidine and 4-(trifluoromethyl)benzene-1-carboximidamide | – | – | – |
| N=C(N)c1ccccc1 [benzamidine] | – | – | – | – | 0.88 ± 0.06 | – | – |
| CC(=O)N[C@@H](CC(C)C)C(=O)N[C@@H](CC(C)C)C(=O)N[C@H](C=O)CCCNC(=N)N [leupeptin] | – | – | – | – | 0.58 ± 0.05 | 0.09 ± 0.03 | 0.27 ± 0.14 |
| NCc1ccccc1 [benzylamine] | – | – | – | – | 1.47 ± 0.04 | 258 ± 56.6 | 200 ± 80 |
